Here are results for one molecule from article PMC5152921, “Evolutionary and Functional Diversification of the Vitamin D Receptor-Lithocholic Acid Partnership” (PLoS ONE, 2016).

Holding throughout (experiment): Mammalian 2-hybrid assay (VDR-coregulator interaction, HepG2)
Holding throughout (format): cell-based
What all share (settings): 100 μM LCA

The target of one test is T1, Human VDR (Homo sapiens, UniProt P11473).
T1 sequence (P11473 1-427): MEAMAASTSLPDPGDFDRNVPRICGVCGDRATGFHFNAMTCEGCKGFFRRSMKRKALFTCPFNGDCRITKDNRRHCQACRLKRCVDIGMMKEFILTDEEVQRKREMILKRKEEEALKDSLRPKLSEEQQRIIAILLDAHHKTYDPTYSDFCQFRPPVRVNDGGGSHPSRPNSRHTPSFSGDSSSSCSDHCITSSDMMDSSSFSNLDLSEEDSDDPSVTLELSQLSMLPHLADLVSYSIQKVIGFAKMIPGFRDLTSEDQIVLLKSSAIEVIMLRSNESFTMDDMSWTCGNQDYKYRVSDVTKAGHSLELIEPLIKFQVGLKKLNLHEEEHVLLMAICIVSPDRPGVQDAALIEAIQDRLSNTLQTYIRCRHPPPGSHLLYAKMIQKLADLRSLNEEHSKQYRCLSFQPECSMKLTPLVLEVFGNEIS
An excerpt:
(§1) Prey constructs included full-length VDRs fused to the herpes simplex VP16 activation domain (pVP16-VDR). Bait constructs consisted of either full-length wild-type human RXR (pM-RXRWT), a truncated human RXR mutant (pM-RXRAF2), or the defined NR box of each member of the SRC/p160 family (pM-SRC1_241-386, pM-GRIP1_479-767, or pM-ACTR392-1005) fused to the yeast Gal4 DNA-binding domain. Reporters included the Gal4 luciferase reporter (5xGal4-TATA-Luc) and pRL-CMV as an internal luciferase control.
(§2) HepG2 cells were seeded into 96-well tissue culture plates as described above and transfected with Lipofectamine 2000 the following day. Each well received 33.6 ng pVP16-VDR, 33.6 ng pM-coregulator (where indicated), 126.6 ng 5XGal4-TATA-Luc, and 3 ng pRL-CMV. […] Positive controls were treated with 1,25D3 and vehicle controls were treated with ethanol. Luciferase activity was measured 24 hours post-exposure using the Dual-Glo Luciferase Assay System described above. Raw luciferase data were normalized to the pRL-CMV luciferase control. VDR-coregulator response was normalized to the pVP16-VDR in the absence of bait constructs. Results were analyzed using a two-way ANOVA followed by Bonferroni’s multiple comparisons test in Prism (GraphPad Inc, San Diego, CA). All experiments were replicated 3 times and conducted as groups of 4 replicate wells.

In another test the target is T2, Medaka VDRβ (Oryzias latipes, UniProt B2CCA1).
T2 sequence (B2CCA1 1-425): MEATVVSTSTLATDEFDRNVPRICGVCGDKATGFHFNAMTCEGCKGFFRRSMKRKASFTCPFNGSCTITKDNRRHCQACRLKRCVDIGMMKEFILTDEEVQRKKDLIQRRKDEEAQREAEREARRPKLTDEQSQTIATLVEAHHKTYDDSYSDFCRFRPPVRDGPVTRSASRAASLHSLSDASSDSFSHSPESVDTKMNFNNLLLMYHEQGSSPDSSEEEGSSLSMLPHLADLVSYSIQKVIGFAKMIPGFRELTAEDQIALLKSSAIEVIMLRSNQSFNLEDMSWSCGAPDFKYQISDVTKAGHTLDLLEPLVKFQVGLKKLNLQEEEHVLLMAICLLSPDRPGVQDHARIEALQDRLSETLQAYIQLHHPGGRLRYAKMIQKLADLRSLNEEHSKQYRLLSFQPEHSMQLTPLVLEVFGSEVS
T2 sequence (P19793 1-462 partner): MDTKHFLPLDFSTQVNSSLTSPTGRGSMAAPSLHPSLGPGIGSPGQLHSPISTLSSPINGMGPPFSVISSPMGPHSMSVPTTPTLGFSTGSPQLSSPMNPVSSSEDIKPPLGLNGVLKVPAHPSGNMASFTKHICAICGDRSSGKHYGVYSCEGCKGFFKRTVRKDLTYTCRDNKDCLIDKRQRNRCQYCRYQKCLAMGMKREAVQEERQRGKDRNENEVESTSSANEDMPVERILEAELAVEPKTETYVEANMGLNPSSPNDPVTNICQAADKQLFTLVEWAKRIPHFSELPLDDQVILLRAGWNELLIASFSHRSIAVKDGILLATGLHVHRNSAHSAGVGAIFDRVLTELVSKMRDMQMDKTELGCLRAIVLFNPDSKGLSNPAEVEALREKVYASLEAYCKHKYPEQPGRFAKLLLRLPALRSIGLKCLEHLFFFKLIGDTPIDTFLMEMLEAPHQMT
Text: as §1, §2

The target in a further test is Medaka VDRα (Oryzias latipes, UniProt B2CCA0).
Text: as §1, §2

Chain of Medaka VDRα (B2CCA0 entry or part of it, one chain of several): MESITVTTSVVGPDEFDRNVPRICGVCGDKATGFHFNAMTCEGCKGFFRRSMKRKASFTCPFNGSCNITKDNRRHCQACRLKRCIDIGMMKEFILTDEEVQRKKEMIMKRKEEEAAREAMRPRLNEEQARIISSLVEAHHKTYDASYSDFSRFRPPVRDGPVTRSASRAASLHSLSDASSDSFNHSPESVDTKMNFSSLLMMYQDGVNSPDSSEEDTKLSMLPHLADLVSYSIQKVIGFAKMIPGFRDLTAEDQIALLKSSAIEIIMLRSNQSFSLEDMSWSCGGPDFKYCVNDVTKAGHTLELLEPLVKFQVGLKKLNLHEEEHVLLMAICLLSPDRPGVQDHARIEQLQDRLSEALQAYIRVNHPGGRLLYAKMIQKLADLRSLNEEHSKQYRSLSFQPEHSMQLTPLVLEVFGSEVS

Consider `C[C@H](CCC(=O)O)[C@H]1CC[C@H]2[C@@H]3CC[C@@H]4C[C@H](O)CC[C@]4(C)[C@H]3CC[C@]12C` [LCA, 5β-cholanic acid-3α-ol], for which the VDR-SRC1 interaction entry is recorded as “successfully recruited SRC1” on Human VDR (absence of cotransfected RXRWT), “strong VDR-SRC1 interactions” on Human VDR (cotransfection of RXRWT), “strong VDR-SRC1 interactions” at Medaka VDRβ (cotransfection of RXRWT) and “strong VDR-SRC1 interactions” on Medaka VDRα (cotransfection of RXRWT). For the same molecule, the “VDR-RXRWT interaction (heterodimerization)” value was “Robust and significant VDR-RXRWT interactions” on Human VDR (bait human RXRWT); “Robust and significant VDR-RXRWT interactions” at Medaka VDRβ (bait human RXRWT); “Robust and significant VDR-RXRWT interactions” at Medaka VDRα (bait human RXRWT).
